Assay results reported in PubChem BioAssay AID1949 (Southern Research Institute, 2009).
Converted amounts (≈) assume the structure as drawn. Records with an inconclusive call do not appear. The source made the active and inactive calls. The rule behind the calls is not given here.

Test system: M. tuberculosis H37Rv growth inhibition
Test: Mycobacterium tuberculosis H37Rv growth inhibition, cell based, confirmatory dose response (AID 1949);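 note: bacteria grown 7 days with compound before Alamar blue readout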

SMILES	IC50
CCOC(=O)COc1cc2oc(=O)cc(CC)c2cc1Cl	1.43 µg/mL (≈ 4.6 µM)
CCc1cccc(OCC(=O)Nc2ccc([N+](=O)[O-])cc2)c1	11.7 µg/mL (≈ 39.1 µM)
CCOC(=O)Cn1nnc(-c2ccc(OCc3ccccc3C)cc2)n1	< 0.1 µg/mL
CCC(=O)Nc1ccc2oc(-c3c(F)c(F)c(F)c(F)c3F)nc2c1	10.5 µg/mL (≈ 29.4 µM)
C#CCSc1nnc(-c2ccc(Br)cc2)o1	0.94 µg/mL (≈ 3.18 µM)
Cc1cc(OCCOCCn2ccnc2)cc(C(C)C)c1	> 50 µg/mL (inactive)
O=C(Nc1ccc(N2CCN(Cc3ccccc3F)CC2)cc1)c1ccc([N+](=O)[O-])o1	0.28 µg/mL (≈ 0.66 µM)
O=C(COc1cccc2ccccc12)c1ccc(F)cc1	2.82 µg/mL (≈ 10.1 µM)
COc1ccc(-c2nc(NC(=O)c3ccccc3)n[nH]2)cc1OC	1.5 µg/mL (≈ 4.62 µM)
O=C(NC(Nc1ccc([N+](=O)[O-])cc1)C(Cl)(Cl)Cl)c1cccc(I)c1 (stereo unspecified)	7.08 µg/mL (≈ 13.8 µM)
COc1cccc(NC(=S)NC(=O)CC(C)(C)C)c1	13.4 µg/mL (≈ 47.9 µM)
Cc1cc(Oc2nc([N+](=O)[O-])nn2C)ccc1Cl	5.88 µg/mL (≈ 21.9 µM)
COc1cccc(OCC(=O)c2ccc(Br)cc2)c1	0.37 µg/mL (≈ 1.15 µM)
O=c1c2ccccc2nc(/C=C/c2ccc(Br)cc2)n1-c1ccc(O)cc1	> 50 µg/mL (inactive)
Cc1cccc(N2CCN(c3ncnc4sc5c(c34)CCCC5)CC2)n1	2.26 µg/mL (≈ 6.18 µM)
CC(C)(C)c1ccc(C(=O)NC(=S)N2CCCC2)cc1	1.35 µg/mL (≈ 4.65 µM)
CN(C)CCCNc1nn2c(=O)c3c(-c4ccc(Cl)cc4)csc3nc2c2ccccc12	35.1 µg/mL (≈ 75.5 µM)
COc1cccc(NC(=O)Nc2ccc(C(F)(F)F)cc2)c1	5.23 µg/mL (≈ 16.9 µM)
Cc1cc(C(C)(C)C)ccc1OCCCCn1ccnc1	1.4 µg/mL (≈ 4.89 µM)
O=C(CCNc1ccc(Cc2ccncc2)cc1)c1ccc([N+](=O)[O-])cc1	4.37 µg/mL (≈ 12.1 µM)
COc1cc(CNC(C)c2ccccc2)cc(Br)c1OCc1ccccc1 (stereo unspecified)	6.21 µg/mL (≈ 14.6 µM)
CN1CCN(c2ccc(NC(=O)c3ccc(Cl)c(Cl)c3)cc2)CC1	> 50 µg/mL (inactive)

SMILES	IC50
CCOc1ccc(OCc2ccc(C(=O)Nc3cccc(C)n3)o2)cc1	7.11 µg/mL (≈ 20.2 µM)
OC(COc1ccc2ccccc2c1Br)Cn1ccnc1 (stereo unspecified)	5.39 µg/mL (≈ 15.5 µM)
O=C(Nc1nc(-c2ccccc2)c(-c2ccccc2)o1)c1ccc(F)cc1	< 0.1 µg/mL
O=C1C(Cl)=C(c2ccc(Cl)cc2)C(=O)N1c1ccc(Cl)cc1	> 50 µg/mL (inactive)
O=C(CC12CC3CC(CC(C3)C1)C2)NC(=S)Nc1ccc(-c2nc3ccccc3[nH]2)cc1	1.46 µg/mL (≈ 3.28 µM)
CN1CCN(c2ccc(NC(=O)c3sc4ccccc4c3Cl)cc2)CC1	> 50 µg/mL (inactive)
CCOC(=O)C1=C(C)N(c2ccc(Br)cc2)C(=O)C1	3.23 µg/mL (≈ 9.96 µM)
CCC(C)(C)C1CCc2sc3ncnc(N4CCN(C)CC4)c3c2C1 (stereo unspecified)	6.39 µg/mL (≈ 17.8 µM)
C=C(C)Cn1c(=S)[nH]c2sc3c(c2c1=O)CCc1ccccc1-3	> 50 µg/mL (inactive)
COc1cccc(-n2nnnc2S(=O)(=O)Cc2ccccc2)c1	0.38 µg/mL (≈ 1.15 µM)
O=C(Oc1c(Cl)cc(Cl)c2cccnc12)c1ccccc1[N+](=O)[O-]	0.2 µg/mL (≈ 0.551 µM)
Cc1cc(NC(=O)CSc2nnc(-c3ccccc3Cl)o2)no1	2.43 µg/mL (≈ 6.93 µM)
Cc1cc(Nc2ccc(N(C)C)cc2)c2cccc(C)c2n1	4.43 µg/mL (≈ 15.2 µM)
CCC(OC(C)=O)c1ccc(OC(C)=O)c(OC)c1 (stereo unspecified)	1.43 µg/mL (≈ 5.37 µM)
CC(=O)Oc1cc2c(cc1Cl)C1(CC(c3ccccc3Cl)O2)CC(C)(C)NC(=S)N1 (stereo unspecified)	2.84 µg/mL (≈ 6.1 µM)
O=C(Nc1ncnc2sc3c(c12)CCCC3)c1ccc(F)cc1	0.52 µg/mL (≈ 1.59 µM)
O=C(Nc1nc2ccccc2[nH]1)c1cccc(Cl)c1	10.4 µg/mL (≈ 38.3 µM)
c1ccc(CCN2CCN(c3ncnc4sc5c(c34)CCCC5)CC2)cc1	23.9 µg/mL (≈ 63.2 µM)
O=[N+]([O-])c1ccc(O)c(-c2nc(-c3cccs3)c(-c3cccs3)[nH]2)c1	97 µg/mL (≈ 263 µM)
COc1ccc(CNC(=O)c2c(N)nc3sc4c(c3c2C(F)(F)F)CCC4)cc1	0.31 µg/mL (≈ 0.736 µM)
Cc1cc(OCCCCn2ccnc2)ccc1C(C)C	2.57 µg/mL (≈ 9.43 µM)
COc1ccc(Cl)cc1C(=O)Nc1ccc(N2CCN(Cc3ccccc3F)CC2)cc1	3.36 µg/mL (≈ 7.4 µM)

SMILES	IC50
C#CCOc1c(Cl)cc(/C=C/[N+](=O)[O-])cc1OC	29.4 µg/mL (≈ 110 µM)
Cc1cc(C)nc(/N=C(/N)Nc2cc(Oc3ccccc3)ccc2Cl)n1	4.87 µg/mL (≈ 13.2 µM)
COc1cccc(NC(=O)CSc2ccc(Br)cc2)c1	11.7 µg/mL (≈ 33.2 µM)
O=Cc1cccc(OCC(=O)Nc2cccc(Cl)c2)c1	45 µg/mL (≈ 155 µM)
COc1cc2c(cc1NC(=O)Nc1ccc(Cl)cc1)oc1ccccc12	1.33 µg/mL (≈ 3.63 µM)
CC12CC3CC(C)(C1)CC(C(=O)NC1=NCCS1)(C3)C2	13 µg/mL (≈ 44.3 µM)
CCc1ccc(O)c(NC(=S)NC(=O)c2cccc3ccccc23)c1	0.16 µg/mL (≈ 0.457 µM)
CC1CCc2nc3sc4c(c3c(N)c2C1)CCCC4 (stereo unspecified)	1.06 µg/mL (≈ 3.89 µM)
Cc1ccccc1N1CCN(CC(O)COc2ccc(C(=O)c3ccccc3)cc2)CC1 (stereo unspecified)	2.81 µg/mL (≈ 6.53 µM)
O=C(CCNc1ccc(Cl)c(C(F)(F)F)c1)c1cccs1	3.17 µg/mL (≈ 9.5 µM)
O=C1NN=C2C1=NC1(CCCCC1)Cc1ccccc12	0.1 µg/mL (≈ 0.374 µM)
Cc1ccc(NS(=O)(=O)c2ccc(NC(=S)NC(=O)c3ccc(F)cc3)cc2)c(C)c1	8.09 µg/mL (≈ 17.7 µM)
NC(=O)c1c(NC(=O)c2c(F)c(F)c(F)c(F)c2F)sc2c1CCC2	2.77 µg/mL (≈ 7.36 µM)
CC(C)(C)c1ccc(OCCn2c(N)nc3ccccc32)cc1	1.61 µg/mL (≈ 5.2 µM)
COc1cc(/C=C/[N+](=O)[O-])ccc1OC(=O)c1ccco1	22.6 µg/mL (≈ 78.1 µM)
O=C(Nc1cccc(C(F)(F)F)c1)N1CCN(c2cccc(C(F)(F)F)c2)CC1	5.09 µg/mL (≈ 12.2 µM)
O=C(NCc1cccc(C(F)(F)F)c1)Nc1cccc(Cl)c1	5.93 µg/mL (≈ 18 µM)
Cc1ccc(C(=O)Nc2ccc([N+](=O)[O-])cc2C)cc1I	< 0.1 µg/mL
O=S(=O)(Nc1cc(Br)c(O)c2ccccc12)c1ccc(F)cc1	3.06 µg/mL (≈ 7.72 µM)
COc1ccc(CCNC(=S)N2CCN(c3ccc(Cl)c(Cl)c3)CC2)cc1OC	6.47 µg/mL (≈ 14.2 µM)
COC(=O)c1cccc(NC(=O)COc2ccc(C(C)(C)C)cc2)c1	> 50 µg/mL (inactive)
COc1cc(CNCc2ccccc2)c(Br)cc1OC1CCCC1	10.5 µg/mL (≈ 27 µM)

SMILES	IC50
Cc1cccc2sc(NC(=O)c3ccc(C(C)(C)C)cc3)nc12	1.39 µg/mL (≈ 4.28 µM)
Cc1nc2ccc(C(=O)OCc3nnc(-c4ccccc4)o3)cc2nc1C	2.98 µg/mL (≈ 8.27 µM)
CCCCSc1ccc(NCCC(=O)c2ccco2)cc1	0.42 µg/mL (≈ 1.38 µM)
Cc1ccc([N+](=O)[O-])cc1NC(=O)Nc1cccc(Cl)c1	0.21 µg/mL (≈ 0.687 µM)
O=C(Nc1ccc(Oc2ccccc2)cc1)Nc1cccc([N+](=O)[O-])c1	1.09 µg/mL (≈ 3.12 µM)
CCS(=O)(=O)c1nnnn1-c1ccccc1F	> 50 µg/mL (inactive)
c1ccc2nc3c(nc2c1)Nn1cnnc1S3	> 50 µg/mL (inactive)
O=C(CC1(O)C(=O)N(CCc2ccccc2)c2ccc(Cl)cc21)c1cccnc1 (stereo unspecified)	6.05 µg/mL (≈ 14.9 µM)
CC(C)COc1ccc(-c2nn(-c3ccccc3)cc2C(=O)Nc2nccs2)cc1	0.19 µg/mL (≈ 0.454 µM)
COc1cc(C(=O)Oc2ccc(Cl)c3cccnc23)cc(OC)c1OC	11.3 µg/mL (≈ 30.2 µM)
COc1ccc(-c2[nH]c(-c3ccc([N+](=O)[O-])cc3)nc2-c2ccccc2)cc1	2.33 µg/mL (≈ 6.27 µM)
COc1ccc(-c2csc(Nc3ccc(S(N)(=O)=O)cc3)n2)cc1	3.73 µg/mL (≈ 10.3 µM)
CN(C)c1ccc(NC(=O)c2ccncc2)cc1	2.89 µg/mL (≈ 12 µM)
COc1cc(/C=C2\Oc3ccccc3C2O)cc(Cl)c1OC (stereo unspecified)	3.04 µg/mL (≈ 9.54 µM)
Cc1cc([N+](=O)[O-])ccc1NC(=O)Nc1cccc(C(F)(F)F)c1	0.24 µg/mL (≈ 0.707 µM)
O=C(c1ccc(Cl)cc1)c1ccc(OCC(O)CN2CCN(Cc3ccccc3)CC2)cc1 (stereo unspecified)	2.75 µg/mL (≈ 5.91 µM)
Cc1cc(OCC(O)CNC(C)c2ccccc2)ccc1C(C)C (stereo unspecified)	5.52 µg/mL (≈ 16.9 µM)
O=C1c2ccccc2C(=O)c2c1nc1ccccn21	2.87 µg/mL (≈ 11.6 µM)
CCCOC(=O)c1ccc(NC(=S)NC(=O)c2ccc(Cl)cc2)cc1	0.8 µg/mL (≈ 2.12 µM)
COC(=O)COc1ccc(NC(=O)c2ccc(-c3ccccc3)cc2)cc1	< 0.1 µg/mL
